{"source": "paper PMC9897045", "about": "(ACS Omega, 2023)", "origin": "cited, not measured here", "key": {"[1]": {"tested_on": "main protease (Mpro, 3CLpro, nsp5)", "conditions": "read-out: EC50 against main protease (Mpro)"}}, "note": "Like-named read-outs stand apart in the source and are kept apart here.", "data": [{"smiles": "Cn1cnc(Cn2c(=O)[nH]/c(=N\\c3cc4cn(C)nc4cc3Cl)n(Cc3cc(F)c(F)cc3F)c2=O)n1", "note": "[S-217622, (6E)-6-[(6-chloro-2-methyl-2H-indazol-5-yl)imino]-3-[(1-methyl-1H-1,2,4-triazol-3-yl)methyl]-1-(2,4,5-trifluorobenzyl)-1,3,5-triazinane-2,4-dione]", "values": [{"measurement": "EC50", "setting": "[1]", "value": 13, "unit": "nM"}, {"measurement": "EC50", "setting": "SARS-CoV-2; read-out: EC50 against SARS-CoV-2, range over strains, CPE EC50", "value": "290 to 500", "unit": "nM"}, {"measurement": "EC50", "setting": "SARS-CoV-2; read-out: EC50 against SARS-CoV-2 Alpha strain, strain QK002", "value": 330, "unit": "nM"}, {"measurement": "EC50", "setting": "SARS-CoV-2; read-out: EC50 against SARS-CoV-2 Beta strain, strain TY8-612", "value": 400, "unit": "nM"}, {"measurement": "EC50", "setting": "SARS-CoV-2; read-out: EC50 against SARS-CoV-2 Delta strain, strain TY11-927-P1", "value": 410, "unit": "nM"}, {"measurement": "EC50", "setting": "SARS-CoV-2; read-out: EC50 against SARS-CoV-2 Gamma strain, strain TY7-501", "value": 500, "unit": "nM"}, {"measurement": "EC50", "setting": "SARS-CoV-2; read-out: EC50 against SARS-CoV-2 Omicron strain, strain TY38-873", "value": 290, "unit": "nM"}]}]}
